The subject of this experiment is BDF1 mice, Lewis lung carcinoma iv, survival T/C. Briefly: NCI In Vivo Anticancer Drug Screen. Data for tumor model Lewis Lung Carcinoma (intravenous) in B6D2F1 (BDF1) mice. The note with it: endpoint: median survival time, higher = longer survival. The procedure:
The antitumor activity of compounds was measured in mice bearing transplantable tumors. Survival or tumor size were measured and the results are expressed as the measurement made in the treated group (T) divided by the measurement made in the vehicle treated control group (C). The tumor model used in this assay is Lewis Lung Carcinoma (intravenous) in B6D2F1 (BDF1) mice

Setting [1] is: dose: 12.5 mg/kg/injection, schedule: Q01DX009 (ip), vehicle: saline.
The mark [2] stands for this setting: dose: 25.0 mg/kg/injection, schedule: Q01DX009 (ip), vehicle: saline.
The mark [3] stands for this setting: dose: 50.0 mg/kg/injection, schedule: Q01DX009 (ip), vehicle: saline.
Setting [4] is: dose: 100.0 mg/kg/injection, schedule: Q01DX009 (ip), vehicle: saline.
[5] abbreviates: dose: 200.0 mg/kg/injection, schedule: Q01DX009 (ip), vehicle: saline.
The mark [6] stands for this setting: dose: 400.0 mg/kg/injection, schedule: Q01DX009 (ip), vehicle: saline.

Several values for one entry are separate records, joined by “and”; a condition that tells them apart may be missing. Equal entries are not always repeated. Toxic doses and inconclusive results are not listed. Peptide text beside a SMILES is read from it. * marks the point of attachment. Trt = c1ccc(C(c2ccccc2)(c2ccccc2)*)cc1; Cbz = O=C(OCc1ccccc1)*

As for `CN(Cc1cnc2nc(N)nc(N)c2n1)c1ccc(C(=O)N[C@@H](CCC(=O)O)C(=O)O)cc1`, the T/C (dose: 0.23 mg/kg/injection, schedule: Q01DX021 (ip), vehicle: sodium bicarbonate) was 105 % of control; the T/C (dose: 0.25 mg/kg/injection, schedule: Q01DX009 (ip), vehicle: sodium bicarbonate) was 103 % of control; the T/C (dose: 0.39 mg/kg/injection, schedule: Q01DX009 (ip), vehicle: sodium bicarbonate) was 102 % of control; the T/C (dose: 0.39 mg/kg/injection, schedule: Q01DX021 (ip), vehicle: sodium bicarbonate) is 102 % of control; the T/C (dose: 0.5 mg/kg/injection, schedule: Q01DX009 (ip), vehicle: sodium bicarbonate) is 121 % of control; the T/C (dose: 0.65 mg/kg/injection, schedule: Q01DX009 (ip), vehicle: sodium bicarbonate) is 100 % of control. The T/C by setting is: (dose: 0.65 mg/kg/injection, schedule: Q01DX021 (ip), vehicle: sodium bicarbonate) 105 % of control; (dose: 1.0 mg/kg/injection, schedule: Q01DX009 (ip), vehicle: sodium bicarbonate) 107 % of control and 114 % of control and 118 % of control; (dose: 1.08 mg/kg/injection, schedule: Q01DX009 (ip), vehicle: sodium bicarbonate) 95 % of control; (dose: 1.08 mg/kg/injection, schedule: Q01DX021 (ip), vehicle: sodium bicarbonate) 114 % of control; (dose: 1.8 mg/kg/injection, schedule: Q01DX009 (ip), vehicle: sodium bicarbonate) 110 % of control; (dose: 2.0 mg/kg/injection, schedule: Q01DX009 (ip), vehicle: sodium bicarbonate) 96 % of control and 114 % of control. Also, the T/C by setting is: (dose: 2.5 mg/kg/injection, schedule: Q04DX003 (ip), vehicle: sodium bicarbonate) 90 % of control; (dose: 3.0 mg/kg/injection, schedule: Q01DX009 (ip), vehicle: sodium bicarbonate) 114 % of control; (dose: 3.9 mg/kg/injection, schedule: Q04DX006 (ip), vehicle: sodium bicarbonate) 96 % of control; (dose: 4.0 mg/kg/injection, schedule: Q01DX009 (ip), vehicle: sodium bicarbonate) 96 % of control; (dose: 5.0 mg/kg/injection, schedule: Q04DX003 (ip), vehicle: sodium bicarbonate) 103 % of control; (dose: 6.5 mg/kg/injection, schedule: Q04DX003 (ip), vehicle: sodium bicarbonate) 100 % of control and 103 % of control. The T/C was 107 % of control (dose: 6.5 mg/kg/injection, schedule: Q04DX003 (iv), vehicle: sodium bicarbonate); 109 % of control (dose: 6.5 mg/kg/injection, schedule: Q04DX006 (ip), vehicle: sodium bicarbonate); 108 % of control (dose: 10.0 mg/kg/injection, schedule: Q04DX003 (ip), vehicle: sodium bicarbonate); 119 % of control and 123 % of control (dose: 10.8 mg/kg/injection, schedule: Q04DX003 (ip), vehicle: sodium bicarbonate); 116 % of control (dose: 10.8 mg/kg/injection, schedule: Q04DX003 (iv), vehicle: sodium bicarbonate); 120 % of control (dose: 10.8 mg/kg/injection, schedule: Q04DX006 (ip), vehicle: sodium bicarbonate). The T/C by setting is: (dose: 18.0 mg/kg/injection, schedule: Q04DX003 (iv), vehicle: sodium bicarbonate) 120 % of control; (dose: 20.0 mg/kg/injection, schedule: Q04DX003 (ip), vehicle: sodium bicarbonate) 123 % of control; (dose: 30.0 mg/kg/injection, schedule: Q04DX006 (ip), vehicle: sodium bicarbonate) 95 % of control.
For `NNC(=S)N/N=C/c1ccccn1`, the T/C is, setting by setting: (dose: 1.56 mg/kg/injection, schedule: Q01DX009 (ip), vehicle: saline) 98 % of control; (dose: 3.12 mg/kg/injection, schedule: Q01DX009 (ip), vehicle: saline) 102 % of control; (dose: 6.25 mg/kg/injection, schedule: Q01DX009 (ip), vehicle: saline) 107 % of control; under setting [1], 114 % of control.
In the case of `Cc1c2ccncc2c(C)c2c1[nH]c1ccccc12`, the T/C (dose: 6.25 mg/kg/injection, schedule: Q01DX009 (ip), vehicle: Klucel (hydroxypropylcellulose) (HPC)) is 111 % of control; the T/C (dose: 12.5 mg/kg/injection, schedule: Q01DX009 (ip), vehicle: Klucel (hydroxypropylcellulose) (HPC)) was 93 % of control; the T/C (dose: 25.0 mg/kg/injection, schedule: Q01DX009 (ip), vehicle: Klucel (hydroxypropylcellulose) (HPC)) was 105 % of control.
As for `CNc1cccnc1/C=N/NC(N)=S`, the T/C runs as follows: (dose: 12.0 mg/kg/injection, schedule: Q01DX009 (ip), vehicle: saline with Tween-80) 100 % of control; (dose: 25.0 mg/kg/injection, schedule: Q01DX009 (ip), vehicle: saline with Tween-80) 103 % of control; (dose: 50.0 mg/kg/injection, schedule: Q01DX009 (ip), vehicle: saline with Tween-80) 102 % of control; (dose: 100.0 mg/kg/injection, schedule: Q01DX009 (ip), vehicle: saline with Tween-80) 115 % of control.
Turning to `CCc1nc(N)nc(N)c1-c1ccc(Cl)c([N+](=O)[O-])c1`, the T/C by setting is: (dose: 1.56 mg/kg/injection, schedule: Q01DX009 (ip), vehicle: saline with Tween-80) 100 % of control; (dose: 3.12 mg/kg/injection, schedule: Q01DX009 (ip), vehicle: saline with Tween-80) 98 % of control; (dose: 6.25 mg/kg/injection, schedule: Q01DX009 (ip), vehicle: saline with Tween-80) 111 % of control; (dose: 12.5 mg/kg/injection, schedule: Q01DX009 (ip), vehicle: saline with Tween-80) 111 % of control.
Consider `CCCCCCCCCCCC(c1ccccc1)[N+](C)(C)Cc1ccccc1` (stereo not given), for which the T/C is 98 % of control (dose: 1.0 mg/kg/injection, schedule: Q01DX009 (ip), vehicle: saline) and 124 % of control (dose: 2.0 mg/kg/injection, schedule: Q01DX009 (ip), vehicle: saline).
For `Nc1ccn(C2OC(COP(=O)(O)O)C(O)C2O)c(=O)n1` (stereo not given), the T/C (dose: 16.0 mg/kg/injection, schedule: Q01DX009 (ip), vehicle: saline) was 121 % of control and the T/C (dose: 32.0 mg/kg/injection, schedule: Q01DX009 (ip), vehicle: saline) was 106 % of control.
As to `COC(=O)C(CSC(c1ccccc1)(c1ccccc1)c1ccccc1)NC(=O)C(CC(N)=O)NC(=O)OCc1ccccc1` (stereo not drawn) (Cbz-Asn-Cys(Trt)-OMe; configuration not given here), the T/C is, setting by setting: (dose: 12.5 mg/kg/injection, schedule: Q01DX009 (ip), vehicle: distilled water + Tween-80) 103 % of control; (dose: 25.0 mg/kg/injection, schedule: Q01DX009 (ip), vehicle: distilled water + Tween-80) 101 % of control; (dose: 50.0 mg/kg/injection, schedule: Q01DX009 (ip), vehicle: distilled water + Tween-80) 89 % of control; (dose: 100.0 mg/kg/injection, schedule: Q01DX009 (ip), vehicle: distilled water + Tween-80) 100 % of control; (dose: 200.0 mg/kg/injection, schedule: Q01DX009 (ip), vehicle: distilled water + Tween-80) 105 % of control; (dose: 400.0 mg/kg/injection, schedule: Q01DX009 (ip), vehicle: distilled water + Tween-80) 98 % of control.
For `CCOC(=O)C1=C(C#N)C2(CCC(OCc3ccccc3)CC2)C(=O)O1` (stereo not given), the T/C under setting [1] was 94 % of control; the T/C under setting [2] was 95 % of control; the T/C under setting [3] is 98 % of control; the T/C under setting [4] was 106 % of control; the T/C under setting [5] was 114 % of control; the T/C under setting [6] was 89 % of control.
On to `O=P1(N(CCCl)CCCl)NCCCO1` (stereo not given), for which the T/C is, setting by setting: (dose: 39.0 mg/kg/injection, schedule: Q01DX001 (ip), vehicle: saline) 119 % of control; (dose: 50.0 mg/kg/injection, schedule: Q01DX001 (ip), vehicle: saline) 155 % of control; (dose: 78.0 mg/kg/injection, schedule: Q01DX001 (ip), vehicle: saline) 174 % of control; (dose: 133.0 mg/kg/injection, schedule: Q10DX002 (ip), vehicle: saline) 168 % of control; (dose: 200.0 mg/kg/injection, schedule: Q10DX002 (ip), vehicle: saline) 155 % of control.
Turning to `CCC1(O)CC2CN(CCc3c([nH]c4ccccc34)C(C(=O)OC)(c3cc4c(cc3OC)N(C)C3C(O)(C(=O)NCCSSCCNC(=O)C5(O)C(O)C6(CC)C=CCN7CCC8(c9cc(C%10(C(=O)OC)CC%11CN(CCc%12c%10[nH]c%10ccccc%12%10)CC(O)(CC)C%11)c(OC)cc9N(C)C58)C76)C(O)C5(CC)C=CCN6CCC43C65)C2)C1` (stereo not given), the T/C is, setting by setting: (dose: 0.39 mg/kg/injection, schedule: Q01DX009 (ip), vehicle: saline) 93 % of control; (dose: 0.65 mg/kg/injection, schedule: Q01DX009 (ip), vehicle: saline) 93 % of control.
Consider `CCOC(=O)C(N)CSC(=O)NC` (stereo not given), for which the T/C under setting [2] is 105 % of control; the T/C under setting [3] is 98 % of control; the T/C under setting [4] is 96 % of control; the T/C under setting [5] is 96 % of control; the T/C under setting [6] was 113 % of control.

The record behind these values is PubChem BioAssay AID274 (DTP/NCI, 2004).
